Measured values published in PMC12040169 (PLOS Biology, 2025).

Experiment: in vitro
Conditions: human, hela cells, % viability

Row | Structure (SMILES) | viability at 28.5 h, 10 µM | viability at 28.5 h, 10 µM (bulk resorufin, single well)
1 | CC(C)C(=O)N1N=C2CCCCC2C1(O)C(F)(F)F (stereo not drawn) [CBK028091] | 93.2% | –
2 | CCN(CC)C(=O)c1ccc(N)cc1C [CBK022686C] | 93.5% | –
3 | CCOc1cc(S(=O)(=O)NCCCN2CCOCC2)c(C)cc1C [CBK268764] | 99% | –
4 | O=C(Cc1ccc(Cl)c(Cl)c1)N1CCN(C(=O)c2ccco2)CC1 [CBK144454] | 95.2% | –
5 | COc1cnc(C(=O)NCCc2ccc(S(=O)(=O)NC(=O)NC3CCCCC3)cc2)cn1 [CBK011761] | 104% | –
6 | C#CCNCCCOc1ccccc1Oc1ccccc1 [CBK017707C] | 94.2% | –
7 | CCOCCn1c(N2CC(C)CC(C)C2)nc2c1c(=O)[nH]c(=O)n2C (stereo not drawn) [CBK306200] | 83.6% | –
8 | CN(C)C(=O)CSc1cnc2ccccc2n1 [CBK086626] | 86.3% | –
9 | CC1CN(S(=O)(=O)N2CCOCC2)CCN1S(=O)(=O)N1CCOCC1 (stereo not drawn) [CBK269011] | 101% | –
10 | Nc1nnc(-c2ccc(Cl)cc2)[nH]1 [CBK025436] | 118% | –
11 | CCc1cc(O)n2nc(C)c(-c3cccs3)c2n1 [CBK283730] | 99.3% | –
12 | Clc1ccc(-c2ccc(/C=N/c3ccc4oc(-c5ccccc5)nc4c3)o2)cc1 [CBK261969] | 102% | –
13 | O=C(CC1(C(F)(F)F)NCCN1)c1ccco1 [CBK022373] | 82.6% | –
14 | O=C(Cc1ccsc1)N1CCN(c2ncccn2)CC1 [CBK144525] | 105% | –
15 | Cc1ccc(OCC(O)CNC(=O)c2ccccc2C(=O)O)cc1 (stereo not drawn) [CBK264778] | 116% | –
16 | N#Cc1ccccc1CSc1ncn[nH]1 [CBK027835] | 95.1% | –
17 | O=C(CN1CCOCC1)Nc1ccc(S(=O)(=O)Nc2cc(Cl)cc(Cl)c2)cc1 [CBK001239] | 89.1% | –
18 | CC(CC(=O)O)CC(=O)N1CCC2(CC1)NC(=O)Cc1ccccc12 (stereo not drawn) [CBK047281] | 95.3% | –
19 | CC1CC(=O)c2cnc(Nc3ccccc3)nc2C1 (stereo not drawn) [CBK287884] | 92.4% | –
20 | CCN1CCN(C2CCN(Cc3ccccc3[N+](=O)[O-])CC2)CC1 [CBK264631G] | 98.1% | –
21 | CSCCC(C(=O)O)N1C(=O)C(=Cc2ccc(-c3cc(Cl)cc(Cl)c3)o2)SC1=S (stereo not drawn) [CBK296984] | 87.3% | –
22 | Cc1cc(C)n(CC(=O)NC(CC(=O)O)c2ccccc2Cl)n1 (stereo not drawn) [CBK305695] | 106% | –
23 | COc1ccc(C)cc1N(CC(=O)Nc1ccc(F)c(F)c1)S(C)(=O)=O [CBK267006] | 96.5% | –

Row | Structure (SMILES) | viability at 28.5 h, 10 µM | viability at 28.5 h, 10 µM (bulk resorufin, single well)
24 | CN1C(=O)C2(N=C(N)NC(Nc3ccc(F)cc3)=N2)c2ccccc21 (stereo not drawn) [CBK270285] | 94.8% | –
25 | CC(C)(C)NC(=O)Cn1cncc1-c1ccc2c(c1)CC(C)(C)O2 [CBK281980] | 113% | –
26 | FC(F)(F)c1ccnc(OC2CCNC2)n1 (stereo not drawn) [CBK113296] | 92.1% | –
27 | c1ccc(OCCOc2nccnc2-c2cc3ccccc3s2)cc1 [CBK106787] | 92.3% | –
28 | CCCCc1ccc(-c2cc3ncccc3nc2N)cc1 [CBK081198] | 96.3% | –
29 | OCCN(CCO)CC1CC2C=CC1C2 (stereo not drawn) [CBK261874] | 105% | –
30 | Cn1c(=O)c2c(nc(NCc3ccc4c(c3)OCO4)n2Cc2cccc(Cl)c2)n(C)c1=O [CBK074359] | 96.4% | –
31 | CC1CCN(Cc2csc(NC(=O)CCn3c(-c4cccs4)n[nH]c3=S)n2)CC1 [CBK297892] | 92.2% | –
32 | NC(=O)c1cccc(OCCOc2nccnc2N2CCNCC2)c1 [CBK014338G] | 114% | –
33 | CN1CCN(CC(CC(=O)Nc2ccccc2)C(=O)O)CC1 (stereo not drawn) [CBK286746] | 81.8% | –
34 | COc1ccccc1C(=O)N1CCN(C(=O)CN2CCCC2)CC1 [CBK024836] | 88.1% | –
35 | O=C(c1ccccc1NS(=O)(=O)c1cccc2cccnc12)N1CCOCC1 [CBK043338] | 87.1% | –
36 | CN(C)CCN(C(=O)Cc1ccc2c(c1)CCC2)C1CCN(C)CC1 [CBK282182] | 84.6% | –
37 | Cc1cc(CN2CCN(C(=O)NCc3cccnc3)CC2)on1 [CBK305627] | 114% | –
38 | CCCCN(C)CCNC(=O)c1ccc2c(c1)NC(=O)C(N1CCCCC1)S2 (stereo not drawn) [CBK071799] | 85.1% | –
39 | CCc1nc2c(C(=O)NCCNC(C)=O)cnn2c(CC)c1Cc1ccc(Cl)cc1 [CBK165730] | 86% | –
40 | Cc1ccc2oc([C@H]3CN(C(=O)C4CCN(C(=O)OC(C)(C)C)CC4)C[C@@H]3C(=O)O)cc2c1 [CBK001601] | 90.7% | –
41 | Cc1nn(C(C)C)c(C)c1CN(CCO)Cc1cccs1 [CBK283016] | 86% | –
42 | COc1c(O)ccc(/C=N\NC(=O)C2COc3cc4ccccc4cc3O2)c1[N+](=O)[O-] (stereo not drawn) [CBK262836] | 86.9% | –
43 | CC(C)(CNC(=O)Cn1cc(C(=O)NC2CCCCC2)ccc1=O)c1ccccc1F [CBK286099] | 89% | –
44 | O=c1[nH]c2cc(Cl)cc(Cl)c2o1 [CBK015711] | 90.6% | –
45 | Cc1cc(OCc2nnc(SCC(=O)N3CCN(c4ccccc4)CC3)n2C)ccc1Cl [CBK268611] | 104% | –
46 | C=C(C)CN1CCN(C(=O)C(CC)Oc2ccccc2F)CC1 (stereo not drawn) [CBK282935] | 90.1% | –

Row | Structure (SMILES) | viability at 28.5 h, 10 µM | viability at 28.5 h, 10 µM (bulk resorufin, single well)
47 | CS(=O)(=O)N1CC2(CCN(CCCOc3ccccc3)CC2)c2ccccc21 [CBK115457T] | 106% | –
48 | Cc1noc(C)c1C(=O)N1CCC(c2nc(C)n3ccsc23)CC1 [CBK285239] | 101% | –
49 | CCn1c(SCc2cc(Cl)c3c(c2)OCCO3)nnc1-c1ccc(OC)cc1 [CBK297086] | 88.9% | –
50 | O=[N+]([O-])c1cccc(CNc2nccnc2-c2ccccc2F)c1 [CBK037416] | 102% | –
51 | O=S(=O)(Nc1cc(O[C@@H]2CCNC2)c2occc2c1)c1cc(F)c(Br)cc1F [CBK073943C] | 92% | –
52 | CCCc1[nH]n(CC(=O)OCC)c(=O)c1Cc1c(Cl)cccc1Cl [CBK104764] | 94.4% | –
53 | O=C1N[C@@H](Cc2ccc(F)cc2)C(=O)N2CCN(C(=O)N3CCOCC3)C[C@H]12 [CBK289603] | 109% | –
54 | CN(C)Cc1ccc2nc(C(F)(F)F)cc(SCCC(=O)O)c2c1 [CBK149715T] | 91.4% | –
55 | N#Cc1cccc(C(=O)NCC2(N3CCOCC3)CCSC2)c1 (stereo not drawn) [CBK306344] | 121% | –
56 | CCCCOc1ccc(NC(=O)NCCC2=CCCCC2)cc1 [CBK043751] | 92.1% | –
57 | CCN1CCN(C(=O)Cc2cn(C)c3ccccc23)CC1 [CBK200254] | 96.9% | –
58 | COc1ccc2c(c1)CC(=O)NC21CCN(Cc2c(F)cccc2F)CC1 [CBK039835] | 93.8% | –
59 | O=C(C1=C(O)C(=O)N(CCCn2ccnc2)C1c1ccncc1)c1cccs1 (stereo not drawn) [CBK111017] | 106% | –
60 | O=C(CSCC(=O)Nc1ccc2ccccc2c1)NCC1CCCO1 (stereo not drawn) [CBK058183] | 89.6% | –
61 | N#CCCN(C1CCCCC1)S(=O)(=O)c1cccc2nsnc12 [CBK009093] | 94% | –
62 | O=C1CCc2cc(S(=O)(=O)Nc3cccc(-c4ccc(F)cc4)c3)ccc2N1 [CBK286371] | 102% | –
63 | Cc1cc(C(=O)N2CCN(C(=O)c3cn(Cc4ccc(S(C)(=O)=O)cc4)nn3)CC2)n(C)n1 [CBK160824T] | 110% | –
64 | CCCN(CCCc1ccccc1)C1Cc2cc(OC)c(OC)cc2C1 [CBK017596C] | – | 96.6%
65 | O=C(c1nccc2ccccc12)N1CCN(Cc2ccccc2)CC1 [CBK200176] | 98% | –
66 | C/C(=N/OCO/N=C(\C)c1cccc([N+](=O)[O-])c1)c1cccc([N+](=O)[O-])c1 [CBK260872] | 89% | –
67 | O=C(COc1ccc(-c2ccccc2)cc1Cl)N1CCN(C(=O)C2CC2)CC1 [CBK295640] | 96.8% | –
68 | Nc1nnc(SCC(=O)Nc2ccc3c(c2)OCCO3)s1 [CBK266331] | 95.6% | –
69 | COc1ccc2[nH]cc(CCNC(=O)c3ccc(-c4cccc(N(C)C)c4)nc3N(C)C(C)=O)c2c1 [CBK076589] | 101% | –

Row | Structure (SMILES) | viability at 28.5 h, 10 µM | viability at 28.5 h, 10 µM (bulk resorufin, single well)
70 | COc1ccc(S(=O)(=O)N2CCC(C(=O)O)CC2)cc1C(=O)O [CBK092181] | 91.4% | –
71 | COCc1cc(C)n(CC(=O)Nc2ccc(N3CCOCC3)cc2)c(=O)c1C#N [CBK270190] | 95.2% | –
72 | CN(C)c1ncccc1CNC(=O)c1ccccn1 [CBK297774] | 81.5% | –
73 | CCn1c(C(C)Oc2ccc(Cl)cc2)n[nH]c1=S (stereo not drawn) [CBK015099] | 108% | –
74 | Cn1cc(CCNC(=O)N2CCN(Cc3ccsc3)CC2)cn1 [CBK305692] | 88.6% | –
75 | Clc1ccc(CSCCn2cccc2)cc1 [CBK021366] | 92% | –
76 | Cc1cc(C)c2cc(CNC3CC3)c3nn(C)c(=O)n3c2c1 [CBK283186] | 93.8% | –
77 | CCCCOc1ccc(-c2nnn(C(C)C(=O)O)n2)cc1 (stereo not drawn) [CBK070540] | 103% | –
78 | CCN(CC)CCN1CCN(c2cc(-c3ccc4c(c3)OCO4)ncn2)CC1 [CBK037694] | 86% | –
79 | COc1ccc(CN(/N=N/c2nonc2C)c2nonc2C)cc1[N+](=O)[O-] [CBK262386] | 99.3% | –
80 | CCn1cncc1C(=O)NCC1(c2ccccc2F)CCOCC1 [CBK281555] | 90.9% | –
81 | CC(=O)NC(=O)c1cccc(Br)c1 [CBK022890] | 99.3% | –
82 | CCCC(=O)Nc1ccc2c(c1)nc1n2CCN(Cc2ccccc2)C1 [CBK267129] | 105% | –
83 | O=C1N[C@H]2CCCN(C(=O)c3cncs3)[C@H]2CCCCCOc2ccccc21 [CBK292106] | 98.2% | –
84 | Cc1ccc(NC(=O)CCCn2cc([N+](=O)[O-])cn2)cc1Cl [CBK268485] | 76.6% | –
85 | CC(=O)c1c(C)oc2ccc(N(C(=O)c3cccc([N+](=O)[O-])c3)S(=O)(=O)c3cccc4cccnc34)cc12 [CBK267044] | 70.2% | –
86 | O=C(O)Cn1nnc(-c2ccc(OCc3ccccc3)cc2)n1 [CBK269755] | 85.1% | –
87 | CC1CC1C(=O)NCCc1c[nH]c2cccc(C3(O)CCOCC3)c12 (stereo not drawn) [CBK284840] | 95.7% | –
88 | O=C1c2cccc3cccc(c23)C(=O)N1CCN1CCN(CC(O)COc2ccc(Cl)cc2Cl)CC1 (stereo not drawn) [CBK264881] | 94.5% | –
89 | COc1cccc2cc(C(=O)NCCN3CCOCC3)oc12 [CBK149807] | 101% | –
90 | Fc1ccccc1-c1nccnc1NCc1ccncc1 [CBK037540] | 101% | –
